Blank lines part the entries; values can stand above or below the compound they belong to.
Key:
Histone deacetylase 8 = target: T1, Histone deacetylase 8 (Homo sapiens, UniProt Q9BY41); test: Inhibition of HDAC-8 (unknown origin)
T1 sequence (Q9BY41 whole entry): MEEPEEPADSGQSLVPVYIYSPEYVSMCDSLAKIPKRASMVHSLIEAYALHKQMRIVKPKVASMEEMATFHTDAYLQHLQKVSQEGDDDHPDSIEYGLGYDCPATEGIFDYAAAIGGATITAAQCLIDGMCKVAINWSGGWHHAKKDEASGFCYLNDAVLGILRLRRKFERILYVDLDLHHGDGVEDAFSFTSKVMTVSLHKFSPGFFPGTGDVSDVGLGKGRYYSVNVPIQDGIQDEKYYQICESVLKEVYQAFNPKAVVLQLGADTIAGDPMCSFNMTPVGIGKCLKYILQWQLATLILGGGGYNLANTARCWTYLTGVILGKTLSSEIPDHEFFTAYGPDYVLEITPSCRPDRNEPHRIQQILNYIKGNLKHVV

Interstitial collagenase [1] = target: T2, Interstitial collagenase (Homo sapiens, UniProt P03956); test: Inhibition of MMP-1 (unknown origin)
T2 sequence (P03956 whole entry): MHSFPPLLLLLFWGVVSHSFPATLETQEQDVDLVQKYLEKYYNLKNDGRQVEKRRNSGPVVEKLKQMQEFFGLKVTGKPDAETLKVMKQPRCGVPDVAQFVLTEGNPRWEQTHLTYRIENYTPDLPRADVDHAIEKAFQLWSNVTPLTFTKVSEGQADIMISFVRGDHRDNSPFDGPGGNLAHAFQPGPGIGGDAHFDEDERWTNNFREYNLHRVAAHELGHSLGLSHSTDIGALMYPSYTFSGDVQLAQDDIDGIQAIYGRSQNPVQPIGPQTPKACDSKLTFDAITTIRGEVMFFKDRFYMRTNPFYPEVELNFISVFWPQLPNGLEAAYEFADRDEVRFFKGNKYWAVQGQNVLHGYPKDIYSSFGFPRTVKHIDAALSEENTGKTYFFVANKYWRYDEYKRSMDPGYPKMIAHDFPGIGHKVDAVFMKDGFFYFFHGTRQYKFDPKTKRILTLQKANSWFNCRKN

Jurkat E6.1 [2] = test: Induction of apoptosis in human Jurkat E6.1 assessed as reduction in MMP-2 expression at 5 uM measured after 48 hrs by annexin V-FITC/propidium iodide staining based flow cytometry analysis relative to control; format: functional; parameters: scale not given: the % may be the effect or the level left
[3] = target: T3, 72 kDa type IV collagenase (Homo sapiens, UniProt P08253); test: Inhibition of MMP-2 (unknown origin)
T3 sequence (P08253 whole entry): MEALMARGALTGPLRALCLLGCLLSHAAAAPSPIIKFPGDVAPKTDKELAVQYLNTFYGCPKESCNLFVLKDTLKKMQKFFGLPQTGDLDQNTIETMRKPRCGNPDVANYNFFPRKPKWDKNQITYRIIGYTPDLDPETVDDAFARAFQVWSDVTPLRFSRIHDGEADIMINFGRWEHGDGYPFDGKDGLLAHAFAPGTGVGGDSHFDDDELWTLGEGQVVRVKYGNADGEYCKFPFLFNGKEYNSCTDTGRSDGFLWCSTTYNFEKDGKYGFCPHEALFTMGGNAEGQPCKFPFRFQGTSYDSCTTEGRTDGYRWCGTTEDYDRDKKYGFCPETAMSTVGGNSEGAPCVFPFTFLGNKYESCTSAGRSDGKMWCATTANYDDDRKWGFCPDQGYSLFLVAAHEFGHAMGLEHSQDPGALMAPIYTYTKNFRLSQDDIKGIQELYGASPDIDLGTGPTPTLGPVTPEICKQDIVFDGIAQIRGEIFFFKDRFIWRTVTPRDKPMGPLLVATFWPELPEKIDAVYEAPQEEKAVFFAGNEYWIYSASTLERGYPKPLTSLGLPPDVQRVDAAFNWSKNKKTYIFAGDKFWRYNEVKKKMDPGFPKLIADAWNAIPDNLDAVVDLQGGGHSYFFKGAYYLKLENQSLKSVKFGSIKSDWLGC

[4] = target: Macrophage metalloelastase (Homo sapiens, UniProt P39900); test: Inhibition of MMP-12 (unknown origin)
Macrophage metalloelastase, sequence (P39900 whole entry): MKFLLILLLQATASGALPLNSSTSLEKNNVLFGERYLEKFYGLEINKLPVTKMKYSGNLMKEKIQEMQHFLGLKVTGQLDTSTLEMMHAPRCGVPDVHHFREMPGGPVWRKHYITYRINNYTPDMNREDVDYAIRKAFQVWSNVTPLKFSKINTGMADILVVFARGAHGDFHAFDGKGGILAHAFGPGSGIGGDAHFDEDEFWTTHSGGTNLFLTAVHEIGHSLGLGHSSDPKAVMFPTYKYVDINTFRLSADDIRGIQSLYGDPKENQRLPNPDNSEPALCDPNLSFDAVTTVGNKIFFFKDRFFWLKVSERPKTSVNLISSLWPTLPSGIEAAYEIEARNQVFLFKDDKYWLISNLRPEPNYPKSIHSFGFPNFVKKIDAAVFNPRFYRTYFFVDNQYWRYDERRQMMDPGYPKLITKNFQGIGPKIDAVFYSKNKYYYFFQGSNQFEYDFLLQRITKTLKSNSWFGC

Jurkat E6.1 [5] = test: Induction of apoptosis in human Jurkat E6.1 assessed as reduction in MMP-2 expression at 2 uM measured after 48 hrs by annexin V-FITC/propidium iodide staining based flow cytometry analysis relative to control; format: functional; parameters: scale not given: the % may be the effect or the level left
Jurkat E6.1 [6] = test: Induction of apoptosis in human Jurkat E6.1 assessed as reduction in HDAC-8 expression at 5 uM measured after 48 hrs by annexin V-FITC/propidium iodide staining based flow cytometry analysis relative to control; format: functional; parameters: scale not given: the % may be the effect or the level left
Neutrophil collagenase [7] = target: T4, Neutrophil collagenase (Homo sapiens, UniProt P22894); test: Inhibition of MMP-8 (unknown origin)
T4 sequence (P22894 whole entry): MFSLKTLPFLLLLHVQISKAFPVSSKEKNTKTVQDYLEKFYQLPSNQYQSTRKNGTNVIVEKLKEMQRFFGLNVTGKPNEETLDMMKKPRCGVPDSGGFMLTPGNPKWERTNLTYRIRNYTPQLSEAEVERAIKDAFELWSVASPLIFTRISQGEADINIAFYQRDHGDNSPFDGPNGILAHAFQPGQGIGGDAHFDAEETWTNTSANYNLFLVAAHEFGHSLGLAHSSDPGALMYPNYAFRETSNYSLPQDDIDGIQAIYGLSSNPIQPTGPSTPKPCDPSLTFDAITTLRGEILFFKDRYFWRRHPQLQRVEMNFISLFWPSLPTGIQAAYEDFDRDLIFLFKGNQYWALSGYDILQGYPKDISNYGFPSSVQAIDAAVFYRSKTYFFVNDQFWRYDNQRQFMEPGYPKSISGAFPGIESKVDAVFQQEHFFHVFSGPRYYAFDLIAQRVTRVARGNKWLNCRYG

Jurkat E6.1 [8] = test: Cytotoxicity against human Jurkat E6.1 cells incubated for 48 hrs by MTT assay; format: functional, cell-based; conditions: Jurkat E6.1, 48 h
Jurkat E6.1 [9] = test: Induction of apoptosis in human Jurkat E6.1 assessed as reduction in HDAC-8 expression at 2 uM measured after 48 hrs by annexin V-FITC/propidium iodide staining based flow cytometry analysis relative to control; format: functional; parameters: scale not given: the % may be the effect or the level left
[10] = target: T5, Matrix metalloproteinase-9 (Homo sapiens, UniProt P14780); test: Inhibition of MMP-9 (unknown origin)
T5 sequence (P14780 whole entry): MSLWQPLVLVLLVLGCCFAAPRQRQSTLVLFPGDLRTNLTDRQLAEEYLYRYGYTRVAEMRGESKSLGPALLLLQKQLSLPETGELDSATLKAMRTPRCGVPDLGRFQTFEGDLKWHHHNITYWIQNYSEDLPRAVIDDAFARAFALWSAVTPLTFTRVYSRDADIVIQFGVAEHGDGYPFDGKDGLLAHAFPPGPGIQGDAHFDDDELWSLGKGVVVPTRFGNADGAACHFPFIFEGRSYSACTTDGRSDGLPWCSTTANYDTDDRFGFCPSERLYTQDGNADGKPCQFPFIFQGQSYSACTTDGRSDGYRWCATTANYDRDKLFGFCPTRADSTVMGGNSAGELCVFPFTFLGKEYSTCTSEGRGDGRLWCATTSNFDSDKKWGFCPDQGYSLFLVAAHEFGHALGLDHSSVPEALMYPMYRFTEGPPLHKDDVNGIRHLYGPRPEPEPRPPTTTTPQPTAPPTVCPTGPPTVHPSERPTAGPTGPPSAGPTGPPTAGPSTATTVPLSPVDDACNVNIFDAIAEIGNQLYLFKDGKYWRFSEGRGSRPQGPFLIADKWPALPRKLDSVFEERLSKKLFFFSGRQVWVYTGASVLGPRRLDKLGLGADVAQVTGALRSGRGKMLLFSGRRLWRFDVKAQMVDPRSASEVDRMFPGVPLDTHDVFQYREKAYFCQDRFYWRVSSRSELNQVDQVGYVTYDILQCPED

[11] = target: Matrix metalloproteinase-14 (Homo sapiens, UniProt P50281); test: Inhibition of MMP-14 (unknown origin)
U-937 = test: Cytotoxicity against human U-937 cells incubated for 48 hrs by MTT assay; format: functional, cell-based; conditions: U-937, 48 h
MOLT-4 = test: Cytotoxicity against human MOLT-4 cells incubated for 48 hrs by MTT assay; format: functional, cell-based; conditions: MOLT-4, 48 h
[12] = target: T5, Matrix metalloproteinase-9; test: Binding affinity to human MMP-9 assessed as residence time
Interstitial collagenase [13] = target: T2, Interstitial collagenase; test: Inhibition of MMP-1 (unknown origin) assessed as inhibition constant
[14] = target: T5, Matrix metalloproteinase-9; test: Inhibition of MMP-9 (unknown origin) assessed as inhibition constant
[15] = target: T3, 72 kDa type IV collagenase; test: Inhibition of MMP-2 (unknown origin) assessed as inhibition constant
Neutrophil collagenase [16] = target: T4, Neutrophil collagenase; test: Inhibition of MMP-8 (unknown origin) assessed as inhibition constant
Stromelysin-1 = Stromelysin-1 (Homo sapiens, UniProt P08254); test: Inhibition of human recombinant MMP-3 assessed as inhibition constant
Stromelysin-1, sequence (P08254 whole entry): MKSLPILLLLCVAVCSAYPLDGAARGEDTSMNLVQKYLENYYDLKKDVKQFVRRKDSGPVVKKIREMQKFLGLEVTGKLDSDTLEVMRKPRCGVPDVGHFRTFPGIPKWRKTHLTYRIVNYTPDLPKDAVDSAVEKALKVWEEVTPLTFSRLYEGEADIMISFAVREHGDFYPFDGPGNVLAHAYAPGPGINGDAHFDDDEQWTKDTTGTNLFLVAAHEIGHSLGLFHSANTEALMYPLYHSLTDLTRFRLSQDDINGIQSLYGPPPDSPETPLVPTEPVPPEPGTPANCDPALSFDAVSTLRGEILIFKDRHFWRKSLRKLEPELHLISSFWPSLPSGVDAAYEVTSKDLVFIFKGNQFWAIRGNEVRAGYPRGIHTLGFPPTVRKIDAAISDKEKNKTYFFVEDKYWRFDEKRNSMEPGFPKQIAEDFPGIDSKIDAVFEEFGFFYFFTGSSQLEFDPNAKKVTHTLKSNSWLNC

physchem = conditions: water
Description: Solubility of the compound in water

Matrilysin = target: T6, Matrilysin (Homo sapiens, UniProt P09237); test: Inhibition of MMP-7 (unknown origin)
T6 sequence (P09237 whole entry): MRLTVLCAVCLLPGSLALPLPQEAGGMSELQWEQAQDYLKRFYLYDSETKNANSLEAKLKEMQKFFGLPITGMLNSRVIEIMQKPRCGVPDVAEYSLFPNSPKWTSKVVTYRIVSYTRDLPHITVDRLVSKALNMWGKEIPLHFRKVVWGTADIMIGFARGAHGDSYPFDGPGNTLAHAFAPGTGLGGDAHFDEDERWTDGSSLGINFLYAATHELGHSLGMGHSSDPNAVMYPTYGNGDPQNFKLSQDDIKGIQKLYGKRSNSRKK

Jurkat E6.1 [17] = test: Induction of apoptosis in human Jurkat E6.1 assessed as reduction in MMP-2 expression at 20 uM measured after 48 hrs by annexin V-FITC/propidium iodide staining based flow cytometry analysis relative to control; format: functional; parameters: scale not given: the % may be the effect or the level left
Jurkat E6.1 [18] = test: Induction of apoptosis in human Jurkat E6.1 assessed as reduction in MMP-2 expression at 10 uM measured after 48 hrs by annexin V-FITC/propidium iodide staining based flow cytometry analysis relative to control; format: functional; parameters: scale not given: the % may be the effect or the level left
Jurkat E6.1 [19] = test: Induction of apoptosis in human Jurkat E6.1 assessed as reduction in HDAC-8 expression at 20 uM measured after 48 hrs by annexin V-FITC/propidium iodide staining based flow cytometry analysis relative to control; format: functional; parameters: scale not given: the % may be the effect or the level left
Jurkat E6.1 [20] = test: Induction of apoptosis in human Jurkat E6.1 assessed as reduction in HDAC-8 expression at 10 uM measured after 48 hrs by annexin V-FITC/propidium iodide staining based flow cytometry analysis relative to control; format: functional; parameters: scale not given: the % may be the effect or the level left

IC50 (Histone deacetylase 8): 2890 nM | IC50 (Interstitial collagenase [1]): > 250000 nM | IC50 [3]: 6.4 µM | IC50 [4]: 138 µM | IC50 (Neutrophil collagenase [7]): 206 µM | IC50 [10]: 4830 nM | IC50 [11]: 56.3 µM
Compound: O=C(O)CCC(NC(=O)Cc1ccc(Br)cc1)C(=O)NCc1ccc([N+](=O)[O-])cc1 (stereo not drawn)
Activity (Jurkat E6.1 [2]): 70% | Activity (Jurkat E6.1 [5]): 46% | Activity (Jurkat E6.1 [6]): 68% | IC50 (Jurkat E6.1 [8]): 2.77 µM | Activity (Jurkat E6.1 [9]): 48% | IC50 (U-937): 10.6 µM | IC50 (MOLT-4): 4.58 µM

Compound: O=S(=O)(CC1CS1)c1ccc(Oc2ccccc2)cc1 (stereo not drawn)
TIME [12]: 0.223 h

Ki (Interstitial collagenase [13]): > 5 µM
Compound: O=C(C[C@H](CSc1ccccc1)C(=O)O)c1ccc(-c2ccc(Cl)cc2)cc1 [TANOMASTAT]

Ki [14]: 59 nM | Ki [15]: 154 nM | Ki (Neutrophil collagenase [16]): 4.4 nM
Compound: CN1C(=O)N(C[C@H](C(=O)NO)[C@H](CC2CCCC2)C(=O)N2CCCCC2)C(=O)C1(C)C

Ki (Stromelysin-1): 43 nM
Compound: COc1ccc(S(=O)(=O)N(Cc2ccccc2)[C@@H](C(=O)NO)C(C)C)cc1

Compound: N=C(N)NCCC[C@H](N)C(=O)Nc1ccc(Oc2ccc(S(=O)(=O)CC3CS3)cc2)cc1 (stereo partly drawn)
solubility (physchem): > 10000 µg/mL

IC50 (Matrilysin): 23 nM | IC50 (Interstitial collagenase [1]): 9 nM | IC50 [3]: 0.039 µM | IC50 [10]: 27 nM | IC50 [11]: 0.04 µM
Compound: CNC(=O)[C@@H](NC(=O)[C@H](CC(C)C)NC(=O)[C@@H](S)CCN1C(=O)N(C)C(C)(C)C1=O)C(C)(C)C [REBIMASTAT]

Compound: CC(C)NC(=O)C(CCC(=O)O)NC(=O)Cc1ccc(Cl)cc1 (stereo not drawn)
Activity (Jurkat E6.1 [17]): 58% | IC50 (Jurkat E6.1 [8]): 11.5 µM | Activity (Jurkat E6.1 [18]): 42% | Activity (Jurkat E6.1 [19]): 58% | IC50 (U-937): 29.4 µM | IC50 (MOLT-4): 11.8 µM | Activity (Jurkat E6.1 [20]): 32%

— ChEMBL document CHEMBL5230143, “Inhibitors of gelatinases (MMP-2 and MMP-9) for the management of hematological malignancies” (Eur J Med Chem, 2021)
